Assay results taken from publication PMC4822259 (Parasites & Vectors, 2016).

Assays:
Format in all cases: cell-based
[1] = target: T1, AgDOP2 (Anopheles gambiae, UniProt A0A1W5KQ45); experiment: IP-One HTRF IP1 accumulation, inhibition of dopamine response, HEK-293
T1 sequence (A0A1W5KQ45 1-495): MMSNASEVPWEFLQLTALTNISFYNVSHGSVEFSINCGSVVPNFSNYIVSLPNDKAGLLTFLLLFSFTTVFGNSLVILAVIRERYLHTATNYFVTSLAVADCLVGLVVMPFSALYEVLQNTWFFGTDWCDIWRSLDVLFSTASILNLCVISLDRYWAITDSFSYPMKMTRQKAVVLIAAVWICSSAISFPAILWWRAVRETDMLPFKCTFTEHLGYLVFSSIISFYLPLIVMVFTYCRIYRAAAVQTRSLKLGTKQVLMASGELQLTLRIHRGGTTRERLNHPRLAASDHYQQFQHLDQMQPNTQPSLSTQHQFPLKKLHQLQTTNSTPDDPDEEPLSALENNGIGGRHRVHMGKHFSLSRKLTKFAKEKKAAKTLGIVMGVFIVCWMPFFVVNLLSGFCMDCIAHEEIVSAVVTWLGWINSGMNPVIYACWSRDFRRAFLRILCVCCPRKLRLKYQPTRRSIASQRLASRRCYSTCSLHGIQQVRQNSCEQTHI

[2] = target: T2, AaDOP2 (Aedes aegypti, UniProt H6D5H2); experiment: as above
T2 construct: gene dop2; receptor expressed in HEK-293 cells, from authors' previous work
T2 sequence (H6D5H2 1-476): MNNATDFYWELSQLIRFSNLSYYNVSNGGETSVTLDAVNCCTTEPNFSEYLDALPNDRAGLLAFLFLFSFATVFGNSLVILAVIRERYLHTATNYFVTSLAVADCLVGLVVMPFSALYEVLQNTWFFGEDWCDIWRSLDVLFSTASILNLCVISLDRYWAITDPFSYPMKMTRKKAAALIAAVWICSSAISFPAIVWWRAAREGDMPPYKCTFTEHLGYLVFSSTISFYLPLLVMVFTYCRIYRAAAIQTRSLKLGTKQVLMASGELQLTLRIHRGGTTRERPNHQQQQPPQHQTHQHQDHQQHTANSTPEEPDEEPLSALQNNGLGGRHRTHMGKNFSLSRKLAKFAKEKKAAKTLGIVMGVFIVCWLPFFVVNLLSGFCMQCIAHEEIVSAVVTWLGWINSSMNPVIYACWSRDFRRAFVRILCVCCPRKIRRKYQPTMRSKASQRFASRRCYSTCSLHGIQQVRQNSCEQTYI

[3] = target: T3, CqDOP2 (Culex quinquefasciatus, UniProt A0A0B5H0X6); experiment: as above
T3 construct: gene DOP2; receptor expressed in HEK-293 cells, from authors' previous work
T3 sequence (A0A0B5H0X6 1-479): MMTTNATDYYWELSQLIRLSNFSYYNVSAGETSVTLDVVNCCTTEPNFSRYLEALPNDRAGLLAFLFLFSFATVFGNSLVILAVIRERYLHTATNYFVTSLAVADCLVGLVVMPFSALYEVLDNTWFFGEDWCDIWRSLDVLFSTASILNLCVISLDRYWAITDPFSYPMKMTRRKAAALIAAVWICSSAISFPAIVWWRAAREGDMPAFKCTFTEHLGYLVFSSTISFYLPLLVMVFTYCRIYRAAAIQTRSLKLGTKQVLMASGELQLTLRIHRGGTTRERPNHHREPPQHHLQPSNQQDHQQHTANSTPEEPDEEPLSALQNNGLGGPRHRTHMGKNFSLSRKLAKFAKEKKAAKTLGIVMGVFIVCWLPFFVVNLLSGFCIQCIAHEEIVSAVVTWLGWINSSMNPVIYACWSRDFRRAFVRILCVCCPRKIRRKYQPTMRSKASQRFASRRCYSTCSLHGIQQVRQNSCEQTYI

[4] = target: T1, AgDOP2; experiment: IP-One HTRF IP1 accumulation, agonist stimulation, HEK-293

Structure (SMILES): CN(C)CCC=C1c2ccccc2CCc2ccccc21 [Amitriptyline]
- IC50 [1]: 230 ± 20 nM
- IC50 [2]: 50 ± 3 nM
- IC50 [3]: 80 ± 7 nM

Structure (SMILES): CCNC(=O)N1CCN(CCCC(c2ccc(F)cc2)c2ccc(F)cc2)CC1 [Amperozide]
- IC50 [1]: 18800 ± 11000 nM
- IC50 [2]: 5100 ± 1000 nM
- IC50 [3]: 2600 ± 600 nM

Structure (SMILES): CN1CC2c3ccccc3Oc3ccc(Cl)cc3C2C1 (stereo not drawn) [Asenapine]
- IC50 [1]: 0.7 ± 0.08 nM
- IC50 [2]: 3 ± 0.5 nM
- IC50 [3]: 20 ± 4 nM

Structure (SMILES): CN(C)CC/C=C1/c2ccccc2Sc2ccc(Cl)cc21 [Chlorprothixene]
- IC50 [1]: 400 ± 7 nM
- IC50 [3]: 10 ± 2 nM

Structure (SMILES): CSc1ccc2c(c1)C(N1CCN(C)CC1)Cc1ccccc1S2 (stereo not drawn) [Methiothepin]
- IC50 [1]: 140 ± 8 nM
- IC50 [2]: 3 ± 1 nM
- IC50 [3]: 10 ± 5 nM

Structure (SMILES): CN1CCc2cc(Cl)c(O)cc2[C@@H](c2ccccc2)C1 [SCH23390]
- IC50 [1]: 3600 ± 800 nM
- IC50 [2]: 4700 ± 800 nM
- IC50 [3]: 8300 ± 1000 nM

Structure (SMILES): NCCc1ccc(O)c(O)c1 [dopamine]
- EC50 [4]: 4.7 ± 0.4 µM
